Results published in PubChem BioAssay (NCI).
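Growth conditions: 96-well plates. Treatment: test compound, 48 hours, 5 concentrations. Analysis: linear interpolation between bracketing concentrations; unreached endpoints set to highest concentration. The concentration for 50% growth inhibition is given as GI50. TGI: total growth inhibition.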

What was measured:
Experiment in all cases: NCI anticancer screen, dose series, 48 h
NCI/ADR-RES ovarian = system: NCI/ADR-RES ovarian
PC-3 prostate = system: PC-3 prostate
COLO 205 colon = system: COLO 205 colon
M14 melanoma = system: M14 melanoma
HOP-92 NSCLC = system: HOP-92 NSCLC
NCI-H460 lung = system: NCI-H460 lung
SK-OV-3 ovarian = system: SK-OV-3 ovarian
SNB-19 CNS = system: SNB-19 CNS
HCT-116 colon = system: HCT-116 colon
LOX IMVI melanoma = system: LOX IMVI melanoma
UO-31 renal = system: UO-31 renal
HOP-62 NSCLC = system: HOP-62 NSCLC
UACC-257 melanoma = system: UACC-257 melanoma
OVCAR-8 ovarian = system: OVCAR-8 ovarian
HCT-15 colon = system: HCT-15 colon
OVCAR-3 ovarian = system: OVCAR-3 ovarian
ACHN renal = system: ACHN renal
RXF 393 renal = system: RXF 393 renal
MCF7 breast = system: MCF7 breast
SK-MEL-28 melanoma = system: SK-MEL-28 melanoma
SF-268 CNS = system: SF-268 CNS
NCI-H522 lung = system: NCI-H522 lung
CAKI-1 renal = system: CAKI-1 renal
BT-549 breast = system: BT-549 breast
SR leukemia = system: SR leukemia
K-562 leukemia = system: K-562 leukemia
SW-620 colon = system: SW-620 colon
IGROV1 ovarian = system: IGROV1 ovarian
SK-MEL-2 melanoma = system: SK-MEL-2 melanoma
HS 578T breast = system: HS 578T breast
OVCAR-4 ovarian = system: OVCAR-4 ovarian
U251 CNS = system: U251 CNS
TK-10 renal = system: TK-10 renal
SF-295 CNS = system: SF-295 CNS
CCRF-CEM leukemia = system: CCRF-CEM leukemia
A549 NSCLC = system: A549 NSCLC
OVCAR-5 ovarian = system: OVCAR-5 ovarian
A498 renal = system: A498 renal
SN12C renal = system: SN12C renal
SK-MEL-5 melanoma = system: SK-MEL-5 melanoma
T-47D breast = system: T-47D breast
HT29 colon = system: HT29 colon
NCI-H23 lung = system: NCI-H23 lung
MALME-3M melanoma = system: MALME-3M melanoma
EKVX NSCLC = system: EKVX NSCLC
MDA-MB-435 = system: MDA-MB-435
HL-60(TB) leukemia = system: HL-60(TB) leukemia
RPMI-8226 leukemia = system: RPMI-8226 leukemia
MDA-MB-231 breast = system: MDA-MB-231 breast
DU-145 prostate = system: DU-145 prostate
HCC-2998 colon = system: HCC-2998 colon
SNB-75 CNS = system: SNB-75 CNS
786-0 renal = system: 786-0 renal
UACC-62 melanoma = system: UACC-62 melanoma
KM12 colon = system: KM12 colon
MOLT-4 leukemia = system: MOLT-4 leukemia
NCI-H226 lung = system: NCI-H226 lung

SMILES: CC1OC(n2c3ccccc3c3c4c(c5c6ccccc6[nH]c5c32)C(=O)N(CCN2CCOCC2)C4=O)CC(O)C1O (centres undefined)
- GI50 (NCI/ADR-RES ovarian): 2.87 µM
- TGI (NCI/ADR-RES ovarian): 13.1 µM
- GI50 (PC-3 prostate): 3.55 µM
- TGI (PC-3 prostate): 11.4 µM
- GI50 (COLO 205 colon): 1.22 µM
- TGI (COLO 205 colon): 7.81 µM
- GI50 (M14 melanoma): 1.43 µM
- TGI (M14 melanoma): 5.95 µM
- GI50 (HOP-92 NSCLC): 7.77 µM
- TGI (HOP-92 NSCLC): 15.8 µM
- GI50 (NCI-H460 lung): 0.734 µM
- TGI (NCI-H460 lung): 5.27 µM
- GI50 (SK-OV-3 ovarian): 2.29 µM
- TGI (SK-OV-3 ovarian): 9.77 µM
- GI50 (SNB-19 CNS): 2.18 µM
- TGI (SNB-19 CNS): 17.8 µM
- GI50 (HCT-116 colon): 1.33 µM
- TGI (HCT-116 colon): 6.92 µM
- GI50 (LOX IMVI melanoma): 0.962 µM
- TGI (LOX IMVI melanoma): 6.12 µM
- GI50 (UO-31 renal): 1.96 µM
- TGI (UO-31 renal): 10.8 µM
- GI50 (HOP-62 NSCLC): 1.52 µM
- TGI (HOP-62 NSCLC): 8.26 µM
- GI50 (UACC-257 melanoma): 6.11 µM
- TGI (UACC-257 melanoma): 14.5 µM
- GI50 (OVCAR-8 ovarian): 2.74 µM
- TGI (OVCAR-8 ovarian): 16.5 µM
- GI50 (HCT-15 colon): 2.34 µM
- TGI (HCT-15 colon): 13.5 µM
- GI50 (OVCAR-3 ovarian): 4.36 µM
- TGI (OVCAR-3 ovarian): 12.2 µM
- GI50 (ACHN renal): 1.51 µM
- TGI (ACHN renal): 6.74 µM
- GI50 (RXF 393 renal): 2.82 µM
- TGI (RXF 393 renal): 10.6 µM
- GI50 (MCF7 breast): 1.05 µM
- TGI (MCF7 breast): 18 µM
- GI50 (SK-MEL-28 melanoma): 5.61 µM
- TGI (SK-MEL-28 melanoma): 13.8 µM
- GI50 (SF-268 CNS): 1.66 µM
- TGI (SF-268 CNS): 9.65 µM
- GI50 (NCI-H522 lung): 1.52 µM
- TGI (NCI-H522 lung): 11.1 µM
- GI50 (CAKI-1 renal): 1.44 µM
- TGI (CAKI-1 renal): 6.37 µM
- GI50 (BT-549 breast): 2.83 µM
- TGI (BT-549 breast): 12.1 µM
- GI50 (SR leukemia): 0.257 µM
- TGI (SR leukemia): 14.5 µM
- GI50 (K-562 leukemia): 1.85 µM
- TGI (K-562 leukemia): 50 µM
- GI50 (SW-620 colon): 1.07 µM
- TGI (SW-620 colon): 8.78 µM
- GI50 (IGROV1 ovarian): 3.67 µM
- TGI (IGROV1 ovarian): 16 µM
- GI50 (SK-MEL-2 melanoma): 10.6 µM
- TGI (SK-MEL-2 melanoma): 22 µM
- GI50 (HS 578T breast): 6.32 µM
- TGI (HS 578T breast): 16.2 µM
- GI50 (OVCAR-4 ovarian): 4.03 µM
- TGI (OVCAR-4 ovarian): 14.1 µM
- GI50 (U251 CNS): 1.24 µM
- TGI (U251 CNS): 7.19 µM
- GI50 (TK-10 renal): 6.33 µM
- TGI (TK-10 renal): 13.8 µM
- GI50 (SF-295 CNS): 1.61 µM
- TGI (SF-295 CNS): 6.23 µM
- GI50 (CCRF-CEM leukemia): 2.1 µM
- TGI (CCRF-CEM leukemia): 18.1 µM
- GI50 (A549 NSCLC): 2.51 µM
- TGI (A549 NSCLC): 10.4 µM
- GI50 (OVCAR-5 ovarian): 5.36 µM
- TGI (OVCAR-5 ovarian): 12.9 µM
- GI50 (A498 renal): 5.13 µM
- TGI (A498 renal): 13.4 µM
- GI50 (SN12C renal): 1.75 µM
- TGI (SN12C renal): 7.47 µM
- GI50 (SK-MEL-5 melanoma): 1.59 µM
- TGI (SK-MEL-5 melanoma): 6.29 µM
- GI50 (T-47D breast): 1.37 µM
- TGI (T-47D breast): 10.4 µM
- GI50 (HT29 colon): 1.92 µM
- TGI (HT29 colon): 9.91 µM
- GI50 (NCI-H23 lung): 2 µM
- TGI (NCI-H23 lung): 11.1 µM
- GI50 (MALME-3M melanoma): 4.54 µM
- TGI (MALME-3M melanoma): 12.8 µM
- GI50 (EKVX NSCLC): 6.14 µM
- TGI (EKVX NSCLC): 17.7 µM
- GI50 (MDA-MB-435): 2.71 µM
- TGI (MDA-MB-435): 9.59 µM
- GI50 (HL-60(TB) leukemia): 2.28 µM
- TGI (HL-60(TB) leukemia): 13.1 µM
- GI50 (RPMI-8226 leukemia): 2.97 µM
- TGI (RPMI-8226 leukemia): 20.7 µM
- GI50 (MDA-MB-231 breast): 6.63 µM
- TGI (MDA-MB-231 breast): 18.9 µM
- GI50 (DU-145 prostate): 2 µM
- TGI (DU-145 prostate): 7.85 µM
- GI50 (HCC-2998 colon): 7.03 µM
- TGI (HCC-2998 colon): 14 µM
- GI50 (SNB-75 CNS): 0.729 µM
- TGI (SNB-75 CNS): 5.87 µM
- GI50 (786-0 renal): 1.49 µM
- TGI (786-0 renal): 6.53 µM
- GI50 (UACC-62 melanoma): 1.03 µM
- TGI (UACC-62 melanoma): 6.06 µM
- GI50 (KM12 colon): 2.64 µM
- TGI (KM12 colon): 10.5 µM
- GI50 (MOLT-4 leukemia): 1.2 µM
- TGI (MOLT-4 leukemia): 9.93 µM
- GI50 (NCI-H226 lung): 2.2 µM
- TGI (NCI-H226 lung): 9.87 µM
